Each structure is given as a SMILES string.

The format of this series is physicochemical. The text has this: The “solubility” in this description means the limit of dissolving of a solute in a solvent; it can be expressed as the concentration of a solute in a saturated solution. The solubility of the oxidized pyrroloquinoline quinone derivative or a salt thereof can be appropriately decided depending on the temperature of the mixture.

As to `O=C([O-])c1cc(C(=O)[O-])c2c(n1)C(=O)C(=O)c1cc(C(=O)O)[nH]c1-2.[Na+].[Na+]` [oxidized pyrroloquinoline quinone disodium], the solubility was 0.299 g with respect to 100 g of water.

These data come from patent US20150272881A1, “REDUCED PYRROLOQUINOLINE QUINONE GEL” (MITSUBISHI GAS CHEMICAL COMPANY, INC., priority 2011, published 2015).
